Patent publication US20240246932A1 (Merck Sharp & Dohme LLC, priority 2021, published 2024)

Molecular target: human NaV 1.8 channels stably expressed in HEK 293 cells (Homo sapiens (Human), UniProt Q9Y5Y9)
Assay: Nav1.8 Qube automated patch-clamp assay
Assay type: cell-based
Details: human NaV1.8 in HEK 293 cells, whole-cell voltage clamp, room temperature; read-out: IC50 values (nM) for Examples in the Nav1.8 Qube Assay
Procedure, shortened: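 Whole-cell voltage clamp at room temperature on HEK293 cells; from −90 mV, a 10 s 1 Hz train of 20 ms pulses to 10 mV (repolarising to −67 mV) was applied. Peak currents at pulses 1 and 10 gave resting- and inactivated-state inhibition; IC50 fitted by Hill equation. Internal CsF/CsCl buffer.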

Sequence of human NaV 1.8 channels stably expressed in HEK 293 cells (Q9Y5Y9 whole entry): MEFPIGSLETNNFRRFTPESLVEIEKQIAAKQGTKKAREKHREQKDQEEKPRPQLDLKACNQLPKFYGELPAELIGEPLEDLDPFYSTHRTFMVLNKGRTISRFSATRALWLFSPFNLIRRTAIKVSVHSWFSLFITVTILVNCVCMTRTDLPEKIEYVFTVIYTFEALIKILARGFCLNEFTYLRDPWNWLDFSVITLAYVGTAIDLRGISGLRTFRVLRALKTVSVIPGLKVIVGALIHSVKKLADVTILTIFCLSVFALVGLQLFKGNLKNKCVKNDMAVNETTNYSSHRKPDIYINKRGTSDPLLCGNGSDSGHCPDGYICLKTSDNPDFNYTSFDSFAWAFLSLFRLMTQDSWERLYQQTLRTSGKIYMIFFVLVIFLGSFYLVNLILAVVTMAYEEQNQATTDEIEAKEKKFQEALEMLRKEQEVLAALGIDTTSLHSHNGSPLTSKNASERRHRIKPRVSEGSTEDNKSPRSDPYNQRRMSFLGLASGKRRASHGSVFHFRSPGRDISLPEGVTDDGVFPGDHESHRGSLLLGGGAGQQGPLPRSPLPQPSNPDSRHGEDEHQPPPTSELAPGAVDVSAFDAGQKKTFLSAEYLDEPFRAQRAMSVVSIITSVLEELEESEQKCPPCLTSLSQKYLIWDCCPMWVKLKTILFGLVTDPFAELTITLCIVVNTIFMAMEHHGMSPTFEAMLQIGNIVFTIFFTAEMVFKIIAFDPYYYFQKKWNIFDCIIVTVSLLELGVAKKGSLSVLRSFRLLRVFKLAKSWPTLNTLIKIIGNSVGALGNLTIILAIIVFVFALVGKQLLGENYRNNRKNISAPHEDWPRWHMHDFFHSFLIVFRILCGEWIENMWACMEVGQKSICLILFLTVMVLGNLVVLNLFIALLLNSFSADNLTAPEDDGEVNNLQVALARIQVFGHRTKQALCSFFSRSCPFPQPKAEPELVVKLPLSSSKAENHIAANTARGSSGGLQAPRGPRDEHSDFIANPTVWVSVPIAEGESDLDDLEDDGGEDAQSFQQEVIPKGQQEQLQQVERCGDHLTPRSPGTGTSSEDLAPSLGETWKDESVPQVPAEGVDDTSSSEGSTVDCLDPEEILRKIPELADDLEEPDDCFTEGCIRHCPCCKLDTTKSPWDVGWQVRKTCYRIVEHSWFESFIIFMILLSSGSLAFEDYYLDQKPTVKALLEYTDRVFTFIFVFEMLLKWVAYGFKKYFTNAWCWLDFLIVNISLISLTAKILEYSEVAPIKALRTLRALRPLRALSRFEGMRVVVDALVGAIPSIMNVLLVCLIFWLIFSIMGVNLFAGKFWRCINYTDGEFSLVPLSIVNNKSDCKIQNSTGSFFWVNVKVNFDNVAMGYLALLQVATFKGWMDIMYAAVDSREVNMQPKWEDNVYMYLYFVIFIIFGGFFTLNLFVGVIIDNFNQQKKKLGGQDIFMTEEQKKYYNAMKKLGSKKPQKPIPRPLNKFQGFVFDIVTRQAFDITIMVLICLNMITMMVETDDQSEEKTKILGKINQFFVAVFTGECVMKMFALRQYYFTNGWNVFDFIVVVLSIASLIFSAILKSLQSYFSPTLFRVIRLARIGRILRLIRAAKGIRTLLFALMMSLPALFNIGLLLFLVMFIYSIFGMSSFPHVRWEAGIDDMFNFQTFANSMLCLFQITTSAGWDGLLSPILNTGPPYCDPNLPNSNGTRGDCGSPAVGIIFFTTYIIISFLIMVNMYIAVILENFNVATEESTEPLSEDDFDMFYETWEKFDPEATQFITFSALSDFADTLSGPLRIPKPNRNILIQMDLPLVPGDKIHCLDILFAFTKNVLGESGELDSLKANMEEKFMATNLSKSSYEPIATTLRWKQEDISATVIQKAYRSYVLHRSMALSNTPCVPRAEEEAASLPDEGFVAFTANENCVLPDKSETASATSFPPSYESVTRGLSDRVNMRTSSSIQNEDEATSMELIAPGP

IC50 | SMILES
0.31 nM | C[C@@H]1C(=O)NCCN1C(=O)NC(c1ccc(OC(F)(F)F)c(Cl)c1)c1cnc(C(F)(F)F)c(Cl)c1 (single isomer, unassigned) [Example 22A, (2R)-N-((R or S)-(3-chloro-4-(trifluoro-methoxy)phenyl)(5-chloro-6-(trifluoro-methyl)pyridin-3-yl)methyl)-2-methyl-3-oxopiperazine-1-carboxamide]
258 nM | C[C@@H]1C(=O)NCCN1C(=O)NC(c1ccc(F)c(F)c1)c1ccc(F)c(C(F)(F)F)n1 (single isomer, unassigned) [Example 49A, (2R)-N-((R or S)-(3,4-difluorophenyl)(5-fluoro-6-(trifluoro-methyl)pyridin-2-yl)methyl)-2-methyl-3-oxopiperazine-1-carboxamide]
209 nM | C[C@@H]1C(=O)NCCN1C(=O)NC(c1cnc(OCC(F)(F)F)c(F)c1)c1ccc(F)c(C(F)(F)F)n1 (single isomer, unassigned) [Example 48B]
136 nM | O=C1CN(C(=O)NC(c2ccc(OCC(F)(F)F)nc2)c2ccc(F)c(Cl)c2F)CCN1 (single isomer, unassigned) [Example 8B, N-((S or R)-(3-chloro-2,4-difluorophenyl)(6-(2,2,2-trifluoroethoxy)pyridin-3-yl)methyl)-3-oxopiperazine-1-carboxamide]
64.5 nM | C[C@@H]1C(=O)NCCN1C(=O)NC(c1ccc(Cl)c(C#N)c1)c1ccc(F)c(C(F)(F)F)n1 (single isomer, unassigned) [Example 52B, (2R)-N-((S or R)-(4-chloro-3-cyano-phenyl)(5-fluoro-6-(trifluoromethyl)pyridin-2-yl)methyl)-2-methyl-3-oxopiperazine-1-carboxamide]
15.7 nM | C[C@@H]1C(=O)NCCN1C(=O)NC(c1ccc(OC(F)(F)F)cc1)c1ccc(F)c(C(F)(F)F)n1 (single isomer, unassigned) [Example 55B, (2R)-N-((S or R)-(5-fluoro-6-(trifluoro-methyl)pyridin-2-yl)(4-(trifluoromethoxy)phenyl)methyl)-2-methyl-3-oxopiperazine-1-carboxamide]
43.7 nM | C[C@@H]1C(=O)NCCN1C(=O)NC(c1cnc(C(F)(F)F)nc1)c1ccc(Cl)c(Cl)c1 (single isomer, unassigned) [Example 28B, (2R)-N-((S or R)-(3,4-dichlorophenyl)(2-(trifluoromethyl)pyrimidin-5-yl)methyl)-2-methyl-3-oxopiperazine-1-carboxamide]
28 nM | C[C@@H]1C(=O)NCCN1C(=O)NC(c1cnc(OCC(F)(F)F)c(F)c1)c1ccc(F)c(Cl)c1F (single isomer, unassigned) [Example 10B, (2R)-N-((S or R)-(3-chloro-2,4-difluorophenyl)(5-fluoro-6-(2,2,2-trifluoroethoxy)pyridin-3-yl)methyl)-2-methyl-3-oxopiperazine-1-carboxamide]
22.3 nM | C[C@@H]1C(=O)NCCN1C(=O)NC(c1ccc(C#N)c(Cl)c1)c1cnc(C(F)(F)F)c(Cl)c1 (single isomer, unassigned) [Example 24A, (2R)-N-((R or S)-(3-chloro-4-cyano-phenyl)(5-chloro-6-(trifluoromethyl)pyridin-3-yl)methyl)-2-methyl-3-oxopiperazine-1-carboxamide]
2630 nM | CC(C)C1C(=O)NCCN1C(=O)NC(c1ccc(C(F)(F)F)nc1)c1ccc(F)c(Cl)c1F (single isomer, unassigned) [Example 39A, N-((R or S)-(3-chloro-2,4-difluorophenyl)(6-(trifluoromethyl)pyridin-3-yl)methyl)-(R or S)-2-isopropyl-3-oxo-piperazine-1-carboxamide]
73.7 nM | C[C@@H]1C(=O)NCCN1C(=O)NC(c1ccc(OCC(F)(F)F)nc1)c1ccc(F)c(C(F)(F)F)n1 (single isomer, unassigned) [Example 50A, (2R)-N-((R or S)-(5-fluoro-6-(trifluoro-methyl)pyridin-2-yl)(6-(2,2,2-trifluoro-ethoxy)pyridin-3-yl)methyl)-2-methyl-3-oxopiperazine-1-carboxamide]
5.57 nM | C[C@@H]1C(=O)NCCN1C(=O)NC(c1cnc(OC(F)F)s1)c1ccc(F)c(Cl)c1F (single isomer, unassigned) [Example 14A, (2R)-N-((R or S)-(3-chloro-2,4-difluorophenyl)(2-(difluoromethoxy)thiazol-5-yl)methyl)-2-methyl-3-oxopiperazine-1-carboxamide]
2.88 nM | C[C@@H]1C(=O)NCCN1C(=O)NC(c1ccc(OC(F)(F)F)c(Cl)c1)c1cnc(C(F)(F)F)c(Cl)c1 (single isomer, unassigned) [Example 22B, (2R)-N-((S or R)-(3-chloro-4-(trifluoro-methoxy)phenyl)(5-chloro-6-(trifluoro-methyl)pyridin-3-yl)methyl)-2-methyl-3-oxopiperazine-1-carboxamide]
8.55 nM | C[C@@H]1C(=O)NCCN1C(=O)NC(c1ccc(F)c(Cl)c1)c1cccc(C(F)(F)F)n1 (single isomer, unassigned) [Example 44]
285 nM | O=C1CN(C(=O)NC(c2ccc(Cl)c(F)c2)c2ccc(F)c(C(F)(F)F)n2)CCN1 (single isomer, unassigned) [Example 54A, N-((R or S)-(4-chloro-3-fluorophenyl)(5-fluoro-6-(trifluoromethyl)pyridin-2-yl)methyl)-3-oxopiperazine-1-carboxamide]
110 nM | C[C@@H]1C(=O)NCCN1C(=O)NC(c1ccc(C(F)(F)F)nc1)c1ccc(Cl)c(C(F)(F)F)n1 (single isomer, unassigned) [Example 81B, (2R)-N-((S or R)-(5-chloro-6-(trifluoromethyl)pyridin-2-yl)(6-(trifluoro-methyl)pyridin-3-yl)methyl)-2-methyl-3-oxopiperazine-1-carboxamide]
89.3 nM | C[C@@H]1C(=O)NCCN1C(=O)NC(c1cnn(-c2ccc(F)cc2)c1)c1ccc(F)c(Cl)c1F (single isomer, unassigned) [Example 65B, (2R)-N-((S or R)-(3-chloro-2,4-difluoro-phenyl)(1-(4-fluoro-phenyl)-1H-pyrazol-4-yl)methyl)-2-methyl-3-oxopiperazine-1-carboxamide]
10.8 nM | C[C@@H]1C(=O)NCCN1C(=O)NC(c1ccc(OCC(F)(F)F)nc1)c1cc(F)c(F)c(Cl)c1 (single isomer, unassigned) [Example 7A, (2R)-N-((R or S)-(3-chloro-4,5-difluorophenyl)(6-(2,2,2-trifluoro-ethoxy)pyridin-3-yl)methyl)-2-methyl-3-oxopiperazine-1-carboxamide]
82.6 nM | C[C@@H]1C(=O)NCCN1C(=O)NC(c1ccnc(OCC(F)(F)F)c1)c1ccc(F)c(Cl)c1 (single isomer, unassigned) [Example 71A, (2R)-N-((R or S)-(3-chloro-4-fluorophenyl)(2-(2,2,2-trifluoro-ethoxy)pyridin-4-yl)methyl)-2-methyl-3-oxopiperazine-1-carboxamide]
559 nM | O=C1NCCN(C(=O)NC(c2ccc(C(F)(F)F)nc2)c2ccc(F)c(Cl)c2F)C1C1CC1 (single isomer, unassigned) [Example 38A, N—((R or S)-(3-chloro-2,4-difluorophenyl)(6-(trifluoromethyl)pyridin-3-yl)methyl)-(R)-2-cyclopropyl-3-oxopiperazine-1-carboxamide]
61.6 nM | C[C@@H]1C(=O)NCCN1C(=O)NC(c1ccc(Cl)cc1)c1cccc(C(F)(F)F)n1 (single isomer, unassigned) [Example 9A, (2R)-N-((R or S)-(4-chlorophenyl)(6-(trifluoromethyl)pyridin-2-yl)methyl)-2-methyl-3-oxo-piperazine-1-carboxamide]
28.9 nM | C[C@@H]1C(=O)NCCN1C(=O)NC(c1ccc(Cl)cc1)c1ccc(OCC(F)(F)F)nc1 (single isomer, unassigned) [Example 5B, (2R)-N-((S or R)-(4-chlorophenyl)(6-(2,2,2-trifluoro-ethoxy)pyridin-3-yl)methyl)-2-methyl-3-oxopiperazine-1-carboxamide]
52.6 nM | C[C@@H]1C(=O)NCCN1C(=O)NC(c1cnc(C2CC2)c(Cl)c1)c1ccc(F)c(Cl)c1F (single isomer, unassigned) [Example 27A, (2R)-N-((R or S)-(3-chloro-2,4-difluoro-phenyl)(5-chloro-6-cyclopropylpyridin-3-yl)methyl)-2-methyl-3-oxopiperazine-1-carboxamide]
2.45 nM | C[C@@H]1C(=O)NCCN1C(=O)NC(c1cnc(C(F)(F)F)s1)c1ccc(F)c(Cl)c1F (single isomer, unassigned) [Example 62B]
